Measured values taken from US20070128217A1 (priority 2003, published 2007).

What was measured:
[1] = test system: control sera (pooled serum of ten healthy LUMC hospital workers; commercial negative donor pooled serum from the Dutch bloodbank); type: binding, human; set-up: Binding of Control serum LUMC to linear peptides / Binding of Control serum Blood-bank to linear peptides / Binding of Control serum LUMC to looped peptides / Binding of Control Serum Blood-Bank to Looped peptides / Binding of Control serum LUMC to linear peptides of the protein M of SARS-CoV Urbani / Binding of Control serum Blood-bank to linear peptides of the protein M of SARS-CoV Urbani / Binding of Control serum LUMC to looped peptides of the protein M of SARS-CoV Urbani / Binding of Control Serum Blood-Bank to Looped peptides of the protein M of SARS-CoV Urbani: unit not given here
[2] = test system: rabbit serum obtained by immunizing a rabbit with the SARS-CoV strain Frankfurt 1; type: binding; set-up: Binding of a rabbit serum to linear peptides / Binding of a rabbit serum to looped peptides / Rabbit serum linear peptides / Rabbit serum looped peptides / Binding of a rabbit serum to linear peptides of protein N of SARS-CoV Urbani (Rabbit serum linear peptides) / Binding of a rabbit serum to looped/cyclic peptides of protein N of SARS-CoV Urbani (Rabbit serum looped peptides): unit not given here
[3] = test system: recombinant human anti-SARS-CoV antibody 03-018; type: binding; set-up: Binding of antibody 03-018 to linear peptides of the N protein of SARS-CoV Urbani / Binding of antibody 03-018 to looped/cyclic peptides of the N protein of SARS-CoV Urbani: unit not given here
[4] = test system: antibodies in sera from SARS patients (sera 1a, 1b, 2, 6, 37, 62, London, SARS-yellow, SARS-green); type: binding, human; set-up: Binding of serum 6 to linear peptides of protein X1 of SARS-CoV Urbani / Binding of serum 37 to linear peptides of protein X1 of SARS-CoV Urbani / Binding of serum 6 to looped/cyclic peptide (PEPSCAN-ELISA) / Binding of serum 37 to looped/cyclic peptide (PEPSCAN-ELISA) / Binding of serum 37 to looped/cyclic peptides of protein X1 of SARS-CoV Urbani / Binding of serum 6 to linear peptides of protein X2 / Binding of serum 37 to linear peptides of protein X2 / Binding of serum 37 to looped/cyclic peptides of protein X2 of SARS-CoV Urbani / Binding of serum 6 to linear peptides of protein M of SARS-CoV Urbani / Binding of serum 37 to linear peptides of protein M of SARS-CoV Urbani / Binding of serum 6 to looped/cyclic peptides of protein M of SARS-CoV Urbani / Binding of serum 37 to looped/cyclic peptides of protein M of SARS-CoV Urbani / Binding of serum 6 to linear peptides of protein X3 of SARS-CoV Urbani / Binding of serum 37 to linear peptides of protein X3 of SARS-CoV Urbani / Binding of serum 37 to looped/cyclic peptides of protein X3 of SARS-CoV Urbani / Binding of serum 6 to linear peptides of protein X4 of SARS-CoV Urbani / Binding of serum 37 to linear peptides of protein X4 of SARS-CoV Urbani / Binding of serum 37 to looped/cyclic peptides of protein X4 of SARS-CoV Urbani / Binding of serum 6 to linear peptides of protein X5 of SARS-CoV Urbani / Binding of serum 37 to linear peptides of protein X5 of SARS-CoV Urbani / Binding of serum 37 to looped/cyclic peptides of protein X5 of SARS-CoV Urbani / Binding of serum 6 to linear peptides of protein N of SARS-CoV Urbani / Binding of serum 37 to linear peptides of protein N of SARS-CoV Urbani / Binding of serum 6 to linear peptide (PEPSCAN-ELISA) / Binding of serum 1a to looped/cyclic peptides of protein N of SARS-CoV Urbani / Binding of serum 1b to looped/cyclic peptides of protein N of SARS-CoV Urbani / Binding of serum 2 to looped/cyclic peptides of protein N of SARS-CoV Urbani / Binding of serum 6 to looped/cyclic peptides of protein N of SARS-CoV Urbani / Binding of serum 37 to looped/cyclic peptides of protein N of SARS-CoV Urbani / Binding of serum 62 to looped/cyclic peptides of protein N of SARS-CoV Urbani / Binding of serum London to looped/cyclic peptides of protein N of SARS-CoV Urbani / Binding of serum SARS-green to looped/cyclic peptides of protein N of SARS-CoV Urbani: unit not given here

Sequence | Binding of Control Serum Blood-Bank to Looped peptides [1] | Binding of Control serum Blood-bank to linear peptides [1] | Binding of Control serum LUMC to linear peptides [1] | Binding of Control serum LUMC to looped peptides [1] | Binding of a rabbit serum to linear peptides of protein N of SARS-CoV Urbani (Rabbit serum linear peptides) [2] | Binding of a rabbit serum to looped/cyclic peptides of protein N of SARS-CoV Urbani (Rabbit serum looped peptides) [2] | Binding of antibody 03-018 to linear peptides of the N protein of SARS-CoV Urbani [3] | Binding of antibody 03-018 to looped/cyclic peptides of the N protein of SARS-CoV Urbani [3] | Binding of serum 1a to linear peptides of protein N of SARS-CoV Urbani [4] | Binding of serum 1a to looped/cyclic peptides of protein N of SARS-CoV Urbani [4] | Binding of serum 1b to linear peptides of protein N of SARS-CoV Urbani [4] | Binding of serum 1b to looped/cyclic peptides of protein N of SARS-CoV Urbani [4] | Binding of serum 2 to linear peptides of protein N of SARS-CoV Urbani [4] | Binding of serum 2 to looped/cyclic peptides of protein N of SARS-CoV Urbani [4] | Binding of serum 6 to looped/cyclic peptides of protein N of SARS-CoV Urbani [4] | Binding of serum 37 to looped/cyclic peptides of protein N of SARS-CoV Urbani [4] | Binding of serum 62 to looped/cyclic peptides of protein N of SARS-CoV Urbani [4] | Binding of serum London to looped/cyclic peptides of protein N of SARS-CoV Urbani [4] | Binding of serum SARS-green to looped/cyclic peptides of protein N of SARS-CoV Urbani [4] | Binding of serum SARS-yellow to looped/cyclic peptides of protein N of SARS-CoV Urbani [4] | further results
ELSPRWYFYYLGTGP | 0.7 | 0.6 | 0.5 | 0.5 | 0.1 | 0.4 | 0.1 | 0.2 | 0.2 | 0.3 | 0.2 | 0.2 | 0.3 | 0.4 | 0.2 | 0.8 | 0.7 | 0.4 | 0.3 | 0.5 | Binding of serum 6 to linear peptides of protein N of SARS-CoV Urbani [4]: 0.2; Binding of serum 37 to linear peptides of protein N of SARS-CoV Urbani [4]: 0.8; Binding of serum 62 to linear peptides of protein N of SARS-CoV Urbani [4]: 0.7; Binding of serum London to linear peptides of protein N of SARS-CoV Urbani [4]: 0.5; Binding of serum SARS-green to linear peptides of protein N of SARS-CoV Urbani [4]: 0.4; Binding of serum SARS-yellow to linear peptides of protein N of SARS-CoV Urbani [4]: 0.7
EPKKDKKKKTDEAQP | – | – | – | – | 0.2 | 0.3 | 0.1 | 0.2 | 0.2 | 0.2 | 0.1 | 0.1 | 2.4 | 2.1 | 0.1 | 0.4 | 0.3 | 0.3 | 0.0 | 0.1 | Control Serum Blood-Bank Looped peptides [1]: 0.5; Control serum Blood-bank linear peptides [1]: 0.8; Control serum LUMC linear peptides [1]: 0.8; Control serum LUMC looped peptides [1]: 0.3; Binding of serum 6 to linear peptides of protein N of SARS-CoV Urbani [4]: 0.2; Binding of serum 37 to linear peptides of protein N of SARS-CoV Urbani [4]: 0.7; Binding of serum 62 to linear peptides of protein N of SARS-CoV Urbani [4]: 0.7; Binding of serum London to linear peptides of protein N of SARS-CoV Urbani [4]: 0.7; Binding of serum SARS-green to linear peptides of protein N of SARS-CoV Urbani [4]: 0.5; Binding of serum SARS-yellow to linear peptides of protein N of SARS-CoV Urbani [4]: 0.6
EQTQGNFGDQDLIRQ | 0.6 | 1.0 | 1.0 | 0.6 | 0.2 | 0.0 | 0.1 | 0.0 | – | 0.3 | – | 0.1 | – | 0.4 | 0.3 | 0.2 | 0.3 | 0.3 | 1.3 | 0.3 | Recognition of the peptide by sera of SARS-CoV infected individuals, and form (linear, looped/cyclic) in which it is recognized [4]: recognized in linear form
ESKVSGKGQQQQGQT | 1.1 | 0.7 | 0.8 | 0.9 | 0.1 | 0.6 | 0.1 | 0.2 | – | 0.6 | – | 0.4 | – | 0.8 | 0.4 | 0.7 | 0.7 | 0.8 | 0.7 | 0.9 | Binding of serum 1a to linear peptide (PEPSCAN-ELISA) [4]: 0.2; Binding of serum 1b to linear peptide (PEPSCAN-ELISA) [4]: 0.1; Binding of serum 2 to linear peptide (PEPSCAN-ELISA) [4]: 0.2; Binding of serum 6 to linear peptide (PEPSCAN-ELISA) [4]: 0.2; Binding of serum 37 to linear peptide (PEPSCAN-ELISA) [4]: 0.6; Binding of serum 62 to linear peptide (PEPSCAN-ELISA) [4]: 0.7; Binding of serum London to linear peptide (PEPSCAN-ELISA) [4]: 0.5; Binding of serum SARS-green to linear peptide (PEPSCAN-ELISA) [4]: 0.4; Binding of serum SARS-yellow to linear peptide (PEPSCAN-ELISA) [4]: 0.7
